According to ChEMBL document CHEMBL5370585, “Exploration and Biological Evaluation of 1,3-Diamino-7H-pyrrol[3,2-f]quinazoline Derivatives as Dihydrofolate Reductase Inhibitors” (J Med Chem, 2023):
Converted amounts (≈) assume the structure as drawn.

Legend:
[1] = test system: Enterococcus faecalis; assay: Antibacterial activity against Enterococcus faecalis ATCC 29212 incubated for 16 to 18 hrs by CLSI based broth dilution method; type: functional; settings: time 16-18 hrs
[2] = Stability in mouse plasma assessed as parent compound remaining at 5 ug/ml measured after 45 mins by LC-MS/MS analysis; type: ADME, cell-free; settings: at 5 µg/mL, read-out: Stability
[3] = Stability in mouse plasma assessed as parent compound remaining at 5 ug/ml measured after 60 mins by LC-MS/MS analysis; type: ADME, cell-free; settings: at 5 µg/mL, read-out: Stability
[4] = Stability in mouse plasma assessed as parent compound remaining at 5 ug/ml measured after 20 mins by LC-MS/MS analysis; type: ADME, cell-free; settings: at 5 µg/mL, read-out: Stability
[5] = Stability in mouse plasma assessed as parent compound remaining at 1 ug/ml measured after 240 mins by LC-MS/MS analysis; type: ADME, cell-free; settings: at 1 µg/mL, read-out: Stability
[6] = Half life in ICR mouse at 10 mg/kg, ip measured after 5 to 24 hrs post administration by LC-MS/MS analysis; type: ADME, organism-based; settings: in vivo, time 5-24 hrs
[7] = Stability in mouse plasma assessed as parent compound remaining at 1 ug/ml measured after 1440 mins by LC-MS/MS analysis; type: ADME, cell-free; settings: at 1 µg/mL, read-out: Stability
[8] = Toxicity in BALB/c mouse xenografted with mouse EMT6 cells assessed as effect on body weight at 5 mg/kg, ip measured on day 1 (reference value: 18.5 +/-0.5g); type: organism-based; settings: in vivo, 24 h, time 1 day
[9] = Stability in mouse plasma assessed as parent compound remaining at 1 ug/ml measured after 10 mins by LC-MS/MS analysis; type: ADME, cell-free; settings: at 1 µg/mL, read-out: Stability
[10] = Stability in mouse plasma assessed as parent compound remaining at 5 ug/ml measured after 240 mins by LC-MS/MS analysis; type: ADME, cell-free; settings: at 5 µg/mL, read-out: Stability
[11] = test system: HGC-27; assay: Cytotoxicity against human HGC-27 cells measured after 72 hrs by MTT assay; type: functional, cell-based; settings: HGC-27, 72 h
[12] = test system: Staphylococcus epidermidis; assay: Antibacterial activity against Staphylococcus epidermidis ATCC 12228 incubated for 16 to 18 hrs by CLSI based broth dilution method; type: functional; settings: time 16-18 hrs
[13] = Tmax in ICR mouse at 10 mg/kg, ip measured after 5 to 24 hrs post administration by LC-MS/MS analysis; type: ADME, organism-based; settings: in vivo, time 5-24 hrs
[14] = molecular target: T1, Dihydrofolate reductase (Homo sapiens) (UniProt P00374); assay: Inhibition of human DHFR at 1 uM incubated for 10 mins in presence of NADPH by colorimetry based analysis relative to control
T1 sequence (whole entry): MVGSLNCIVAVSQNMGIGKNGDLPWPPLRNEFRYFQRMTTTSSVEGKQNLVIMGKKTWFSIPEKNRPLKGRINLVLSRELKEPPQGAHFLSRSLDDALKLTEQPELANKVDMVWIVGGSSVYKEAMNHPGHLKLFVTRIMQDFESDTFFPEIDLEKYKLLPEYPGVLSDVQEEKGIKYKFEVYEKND

[15] = Toxicity in BALB/c mouse xenografted with mouse EMT6 cells assessed as effect on body weight at 2.5 mg/kg, ip measured on day 14 (reference value: 21.6 +/-0.6g); type: organism-based; settings: in vivo, 336 h, time 14 day
[16] = Toxicity in BALB/c mouse xenografted with mouse EMT6 cells assessed as effect on body weight at 2.5 mg/kg, ip measured on day 1 (reference value: 18.5 +/-0.5g); type: organism-based; settings: in vivo, 24 h, time 1 day
[17] = test system: Acinetobacter baumannii; assay: Antibacterial activity against Acinetobacter baumannii ATCC 19606 incubated for 16 to 18 hrs by CLSI based broth dilution method; type: functional; settings: time 16-18 hrs
[18] = test system: MCF7; assay: Cytotoxicity against human MCF7 cells measured after 72 hrs by MTT assay; type: functional, cell-based; settings: MCF7, 72 h
[19] = test system: EMT6; assay: Antitumor activity against mouse EMT6 cells xenografted in BALB/c mouse model assessed as tumor growth inhibition at 2.5 mg/kg,ip administered every 3 days for 14 consecutive days relative to control; type: functional; parameters: scale not given: the % may be the effect or the level left; settings: time 14 day
[20] = Toxicity in BALB/c mouse xenografted with mouse EMT6 cells assessed as effect on body weight at 5 mg/kg, ip measured on day 14 (reference value: 21.6 +/-0.6g); type: organism-based; settings: in vivo, 336 h, time 14 day
[21] = AUC (0 to t) in ICR mouse at 10 mg/kg, ip measured after 5 to 24 hrs post administration by LC-MS/MS analysis; type: ADME, organism-based; parameters: time 5-24 hrs, dose 10 mg/kg, route ip; settings: ICR, in vivo
[22] = test system: EMT6; assay: Antitumor activity against mouse EMT6 cells xenografted in ip dosed BALB/c mouse model assessed as delay in tumor progression administered every 3 days for 14 consecutive days; type: functional, organism-based; settings: time 14.0 day
[23] = test system: Staphylococcus aureus; assay: Antibacterial activity against Staphylococcus aureus ATCC 29213 incubated for 16 to 18 hrs by CLSI based broth dilution method; type: functional; settings: time 16-18 hrs
[24] = Stability in mouse plasma assessed as parent compound remaining at 5 ug/ml measured after 1440 mins by LC-MS/MS analysis; type: ADME, cell-free; settings: at 5 µg/mL, read-out: Stability
[25] = Stability in mouse plasma assessed as parent compound remaining at 1 ug/ml measured after 120 mins by LC-MS/MS analysis; type: ADME, cell-free; settings: at 1 µg/mL, read-out: Stability
[26] = test system: HCT-116; assay: Cytotoxicity against human HCT-116 cells measured after 72 hrs by MTT assay; type: functional, cell-based; settings: HCT-116, 72 h
[27] = Metabolic stability in mouse liver microsomes assessed as intrinsic clearance at 1 uM measured upto 60 mins in presence of NADPH by LC-MS/MS analysis; type: ADME, Microsome; settings: read-out: CLH
[28] = test system: Staphylococcus aureus; assay: Antibacterial activity against methicillin-resistant Staphylococcus aureus ATCC 43300 incubated for 16 to 18 hrs by CLSI based broth dilution method; type: functional; settings: time 16-18 hrs
[29] = test system: Escherichia coli; assay: Antibacterial activity against Escherichia coli ATCC 25922 incubated for 16 to 18 hrs by CLSI based broth dilution method; type: functional; settings: time 16-18 hrs
[30] = Stability in mouse plasma assessed as parent compound remaining at 5 ug/ml measured after 30 mins by LC-MS/MS analysis; type: ADME, cell-free; settings: at 5 µg/mL, read-out: Stability
[31] = Stability in mouse plasma assessed as parent compound remaining at 1 ug/ml measured after 45 mins by LC-MS/MS analysis; type: ADME, cell-free; settings: at 1 µg/mL, read-out: Stability
[32] = Toxicity in BALB/c mouse xenografted with mouse EMT6 cells at 2.5 mg/kg, ip administered every 3 days for 14 consecutive days; type: organism-based; settings: in vivo, 336 h, time 14 day
[33] = test system: EMT6; assay: Antitumor activity against mouse EMT6 cells xenografted in BALB/c mouse model assessed as tumor weight at 2.5 mg/kg,ip administered every 3 days for 14 consecutive days (reference value: 1.53 +/-0.26g); type: functional; settings: time 14 day
[34] = Metabolic stability in mouse liver microsomes assessed as half life at 1 uM measured upto 60 mins in presence of NADPH by LC-MS/MS analysis; type: ADME, Microsome
[35] = Stability in mouse plasma assessed as parent compound remaining at 5 ug/ml measured after 120 mins by LC-MS/MS analysis; type: ADME, cell-free; settings: at 5 µg/mL, read-out: Stability
[36] = Stability in mouse plasma assessed as parent compound remaining at 1 ug/ml measured after 30 mins by LC-MS/MS analysis; type: ADME, cell-free; settings: at 1 µg/mL, read-out: Stability
[37] = AUC (0 to infinity) in ICR mouse at 10 mg/kg, ip measured after 5 to 24 hrs post administration by LC-MS/MS analysis; type: ADME, organism-based; parameters: time upper 24 hrs, dose 10 mg/kg, time lower 5 hrs, route ip; settings: ICR, in vivo
[38] = test system: EMT6; assay: Antitumor activity against mouse EMT6 cells xenografted in BALB/c mouse model assessed as tumor growth inhibition at 5 mg/kg,ip administered every 3 days for 14 consecutive days relative to control; type: functional; parameters: scale not given: the % may be the effect or the level left; settings: time 14 day
[39] = Metabolic stability in mouse liver microsomes assessed as hepatic clearance at 1 uM measured upto 60 mins in presence of NADPH by LC-MS/MS analysis; type: ADME, Microsome; settings: 1 h
[40] = test system: EMT6; assay: Antitumor activity against mouse EMT6 cells xenografted in BALB/c mouse model assessed as tumor weight at 5 mg/kg,ip administered every 3 days for 14 consecutive days (reference value: 1.53 +/-0.26g); type: functional; settings: time 14 day
[41] = test system: HepG2; assay: Cytotoxicity against human HepG2 cells measured after 72 hrs by MTT assay; type: functional, cell-based; settings: HepG2, 72 h
[42] = Stability in mouse plasma assessed as parent compound remaining at 5 ug/ml measured after 10 mins by LC-MS/MS analysis; type: ADME, cell-free; settings: at 5 µg/mL, read-out: Stability
[43] = Stability in mouse plasma assessed as parent compound remaining at 1 ug/ml measured after 20 mins by LC-MS/MS analysis; type: ADME, cell-free; settings: at 1 µg/mL, read-out: Stability
[44] = Stability in mouse plasma assessed as parent compound remaining at 1 ug/ml measured after 60 mins by LC-MS/MS analysis; type: ADME, cell-free; settings: at 1 µg/mL, read-out: Stability

Cc1cc2c3c(N)nc(N)nc3ccc2n1Cc1nc2ccccc2s1
MIC [1]: 0.5 mg/L (≈ 1.39 µM)
remaining at 0.75 h, 5 ug/ml [2]: 97.9%
remaining at 1 h, 5 ug/ml [3]: 97.8%
remaining at 20 min, 5 ug/ml [4]: 98.6%
remaining at 4 h, 1 ug/ml [5]: 98.5%
half-life [6]: 9.81 h
remaining at 24 h, 1 ug/ml [7]: 97.3%
Activity [8]: 18.3 g
remaining at 10 min, 1 ug/ml [9]: 99.6%
remaining at 4 h, 5 ug/ml [10]: 97.5%
IC50 [11]: 0.54 µM
MIC [12]: ≤ 0.004 mg/L
Tmax [13]: 0.83 h
inhibition [14]: 99.1%
Activity [15]: 14.9 g
Activity [16]: 18.4 g
MIC [17]: 4 mg/L (≈ 11.1 µM)
IC50 [18]: 0.43 µM
Activity [19]: 71%
Activity [20]: 17.6 g
AUC(0-t) [21]: 2.28 µg·h/mL
Activity [22]: Dose-Dependent Effect
MIC [23]: 0.5 mg/L (≈ 1.39 µM)
remaining at 24 h, 5 ug/ml [24]: 97%
remaining at 2 h, 1 ug/ml [25]: 98.4%
IC50 [26]: 1.95 µM
microsomal CLint at 1 µM [27]: 16.9 µL/min/mg
MIC [28]: 0.25 mg/L (≈ 0.694 µM)
MIC [29]: 1 mg/L (≈ 2.77 µM)
remaining at 0.5 h, 5 ug/ml [30]: 98.3%
remaining at 0.75 h, 1 ug/ml [31]: 98.9%
Activity [32]: Non-Toxic
Activity [33]: 0.44 g
half-life at 1 µM [34]: 1.37 h
remaining at 2 h, 5 ug/ml [35]: 97.3%
remaining at 0.5 h, 1 ug/ml [36]: 99.1%
AUC(0-inf) [37]: 2.74 µg·h/mL
Activity [38]: 37.7%
CLH [39]: 2.3 L/h/kg
Activity [40]: 0.95 g
IC50 [41]: 0.18 µM
remaining at 10 min, 5 ug/ml [42]: 99%
remaining at 20 min, 1 ug/ml [43]: 99.3%
remaining at 1 h, 1 ug/ml [44]: 98.5%
